Reference: US20050267076A1 (priority 2004, published 2005)
Where two headings read alike, the source gives them in different places.

Experiments:
[1] = test system: humans; conditions: cited from earlier work
[2] = test system: Long-Evans rats; experiment: 8 hour retention test on a twelve-arm radial maze (spatial memory); assay type: in vivo, rat; conditions: vs vehicle, t(11)=2.69, p<0.02
Description: 12-arm maze test: Behavioral testing was conducted by an experimenter who was blind to drug treatment. 12 Long-Evans rats trained to use a win-shift strategy were given an information trial. During the information trial, 5 of the 12 arms of the 12 arm maze were blocked so that rats were not able to consume food from those blocked arms but could obtain food from each of the 7 open arms. After this session rats were moved to their home cage and placed back in the animal holding room. […] A retroactive memory error is made when the rat enters an arm that was […] on the information trial.
12 rats (divided into three groups) were used in the experiment. Sixty minutes prior to the information session, the rats were injected intraperitoneally (IP) with 150 mg/kg ABPA (Saegis Pharmaceuticals, Inc.), 3 mg/kg donepezil, or combination of 150 mg/kg ABPA and 3 mg/kg donepezil. Physiological saline (NaCl) was used as vehicle. Treatment order was counterbalanced among three groups such that each group (N=4) received a different order of vehicle, ABPA, donepezil, and ABPA+donepezil injection across days, for a total of three tests for each treatment in all subjects.

[3] = test system: rats; assay type: in vivo, rat; conditions: for performance in the object recognition task: vs saline; for Recognition Score: saline 61%
Description: The experimental protocol is as follows:
[…]. Both drugs were administered by intraperitoneal (IP) injection. […].

[4] = in vivo; cited from earlier work
[5] = cited from earlier work

| SMILES | cognitive effect in Alzheimer's Disease patients ([1]; Barner and Gray, 1998, Rogers and Friedhoff) | side effect profile in humans ([1]; human, in vivo) | retention test performance on the 12-arm maze ([2]; 3 mg/kg donepezil IP 60 min prior to information session) | performance in the object recognition task ([3]; donepezil 1.7 mg/kg IP 30 min prior to information trial) | Recognition Score ([3]; donepezil alone at 0.56 mg/kg) [%] | Recognition Score ([3]; donepezil alone at 1 mg/kg) [%] | blood brain barrier crossing [4] | retention test performance on the 12-arm maze ([2]; 150 mg/kg ABPA IP 60 min prior to information session) | water solubility [5] | performance in the object recognition task ([3]; ABPA 3 and 30 mg/kg IP 30 min prior to information trial, delay of 6 hours) | performance in the object recognition task ([3]; ABPA 10, 100, 170, and 300 mg/kg IP 30 min prior to information trial, delay of 6 hours) | Recognition Score ([3]; ABPA alone at 3 mg/kg) [%] | Recognition Score ([3]; ABPA alone at 10 mg/kg) [%] |
| --- | --- | --- | --- | --- | --- | --- | --- | --- | --- | --- | --- | --- | --- |
| COc1cc2c(cc1OC)C(=O)C(CC1CCN(Cc3ccccc3)CC1)C2 (racemic) [donepezil, (±)-2,3-dihydro-5,6-dimethoxy-2-[[1-(phenylmethyl)-4-piperidinyl]methyl]-1H-inden-1-one, reference compound] | slight cognitive improvements | cholinergic side effect profile | improved performance | significantly improved performance | 62 | 63 |  |  |  |  |  |  |  |
| CCCCP(=O)(O)CCCN [ABPA, 3-aminopropyl-(n-butyl)-phosphinic acid] |  |  |  |  |  |  | readily crosses the blood brain barrier | improved performance | highly water-soluble | no beneficial effect | significantly enhanced performance | 61 | 70 |
